How the values were obtained:
hepatocytes HepG2 [1] = assay: Inhibition of hepatic gluconeogenesis (glucose synthesis); details: known inhibitors of gluconeogenesis; concentration not given
hepatocytes HepG2 [2] = details: 1 mM
Procedure: Hepatocytes HepG2, myocytes C2C12 (after 8 days differentiation), and adipocytes 3T3-L1 (after 11 days of differentiation) were cultured and maintained as described in the section above but pleated on a ScintiPlate TC 96-well microplate coated with a solid-phase scintillator (PerkinElmer). Hepatocytes and myocytes were washed, and culture medium was changed for medium with 0.5% BSA instead of serum. After 24 h incubation, the tested complexes were added. After 2 h incubation at 37 °C in 5% CO2, the medium was changed to low-glucose medium (1000 mg/L), and the tested complexes were added again, with further incubation for 4 h being conducted. […] Wortmannin at a final concentration of 200 nM (Sigma-Aldrich ) was used as a negative control. After that, cells were washed three times with cold KRB, and cytochalasin B (10 mM final) was added for several wells as a ‘‘no uptake” control, which proceeded as shown below.
For cells proceeded as above, 2-deoxy-D-[U-14C]-glucose (250–350 mCi/mmol, NEC720A, PerkinElmer) solution in KRB with a total activity of 0.03 mCi was added to each well. […] The radioactivity of samples was measured in a scintillation counter, MicroBeta Trilux 1450 (PerkinElmer). Non-specific radioactivity was subtracted from each result (cpm). […] The final results were expressed as percent of the control that contained solvent only instead of the tested compound.

myocytes C2C12 = tested on: myocytes C2C12; design: method as in doi:10.1016/j.poly.2020.114589; details: 50 µM; previously published by the authors; cited from earlier work
LAR = target: T1, LAR (Homo sapiens, UniProt P10586); assay: Inhibition of human recombinant tyrosine phosphatase LAR (DiFMUP fluorescence); assay type: biochemical; details: for Inhibition of LAR, percentage of inhibition of the control: 1 µM, control solvent only, SD did not exceed 6%
T1 sequence (P10586 1352-1607 limits assumed): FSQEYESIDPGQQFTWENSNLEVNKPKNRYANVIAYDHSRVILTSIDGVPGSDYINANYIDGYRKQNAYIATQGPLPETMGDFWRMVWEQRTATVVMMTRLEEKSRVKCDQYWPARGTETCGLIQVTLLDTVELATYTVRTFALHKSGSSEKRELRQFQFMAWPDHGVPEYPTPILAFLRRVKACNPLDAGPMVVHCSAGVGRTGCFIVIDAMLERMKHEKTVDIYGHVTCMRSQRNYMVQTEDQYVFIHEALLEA
Summary of the method: (§1)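 Human recombinant phosphatases (SHP1 400 ng/mL, SHP2 50 ng/mL, LAR 5 ng/mL final) were pre-incubated 10 min with compound in 25 mM MOPS pH 7.0, 50 mM NaCl, 1 mM DTT, 0.05% Tween-20. DiFMUP (0.1 mM final) was added for 20 min at 23 °C and fluorescence read at 355/560 nm. Screening used 1 µM compound (% inhibition vs vehicle); IC50 also reported.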

CDC25A = target: T2, CDC25A (Homo sapiens, UniProt P30304); assay: Inhibition of human recombinant non-tyrosine phosphatase CDC25A (3-O-methylfluorescein phosphate); assay type: biochemical
T2 construct: purchased Sigma-Aldrich
T2 sequence (P30304 1-524): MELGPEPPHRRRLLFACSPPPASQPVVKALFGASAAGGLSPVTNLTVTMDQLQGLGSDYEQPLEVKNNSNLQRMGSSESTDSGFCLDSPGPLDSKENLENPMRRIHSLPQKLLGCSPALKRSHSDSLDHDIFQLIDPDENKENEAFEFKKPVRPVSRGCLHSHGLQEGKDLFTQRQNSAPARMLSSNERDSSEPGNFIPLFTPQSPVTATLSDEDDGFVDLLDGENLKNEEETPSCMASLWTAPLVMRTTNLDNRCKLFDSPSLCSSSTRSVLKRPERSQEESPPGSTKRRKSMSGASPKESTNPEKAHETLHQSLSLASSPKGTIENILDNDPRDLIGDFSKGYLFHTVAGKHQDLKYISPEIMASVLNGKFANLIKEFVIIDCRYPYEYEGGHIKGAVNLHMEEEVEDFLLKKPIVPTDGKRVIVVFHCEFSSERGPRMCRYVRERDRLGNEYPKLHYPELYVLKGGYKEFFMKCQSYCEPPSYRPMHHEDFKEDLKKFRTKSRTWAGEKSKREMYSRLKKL
Procedure: (§2) For the inhibition assay of non-tyrosine phosphatases, human recombinant proteins were used (Sigma-Aldrich). The reactions were performed in black opaque 384-well microplates (PerkinElmer). To the solution of the tested complexes, an equal volume of a test solution of phosphatase was added. CDC25A were diluted in reaction buffer to the final concentration of 400 ng/mL as for tyrosine phosphatases (described in the section above), and PPA2 (final 0.5 U/mL) was diluted in 50 mM Tris-HCl, 0.05% Tween-20, and 125 µg/mL protease-free bovine serum albumin (pH 7.0). These solutions were dispensed using an automated injector. After 10 min, a solution of phosphate 6,8-difluoro-4-methyl (DiFMUP; Thermo Fisher Scientific) was added for the PPA2 sample until the final concentration 0.1 mM. For CDC25A samples, 3-O-methylfluorescein phosphate for the final concentration of 0.2 mM was added. Samples were incubated for 180 min at 23 °C, and then the measurements of fluorescence intensity (excitation 355 and emission 560 nm) were performed on a multifunctional plate reader POLARstar Omega (BMG Labtech). Assays were performed in triplicate. The results were expressed as percent of inhibition of untreated control (enzyme with vehicle solvent only).

hepatocytes HepG2 [3] = assay: Transport of [14C]-deoxy-D-glucose into insulin-resistant hepatocytes (TNF or oleic acid); assay type: cell-based, human; details: 10 µM; p ≤ 0.05
Procedure: After 24 h incubation, the tested complexes were added. After 2 h incubation at 37 °C in 5% CO2, the medium was changed to low-glucose medium (1000 mg/L), and the tested complexes were added again, with further incubation for 4 h being conducted.
For cells proceeded as above, 2-deoxy-D-[U-14C]-glucose (250–350 mCi/mmol, NEC720A, PerkinElmer) solution in KRB with a total activity of 0.03 mCi was added to each well. […] Non-specific radioactivity was subtracted from each result (cpm). Two independent experiments with triplicates were conducted.
Next, the compounds in fresh medium were added, further incubation was carried out for 24 h, and the scintillation proximity assay for the uptake of radiolabeled 2-deoxy-D-[U-14C]-glucose was conducted as described in the section above.

SHP1 = target: T3, SHP1 (Homo sapiens, UniProt P29350); assay: Inhibition of human recombinant tyrosine phosphatase SHP1 (DiFMUP fluorescence); assay type: biochemical; details: for Inhibition of SHP1, percentage of inhibition of the control: 1 µM, control solvent only, SD did not exceed 6%
T3 construct: purchased Sigma-Aldrich
Summary of the method: as §1

SHP2 = target: T4, SHP2 (Homo sapiens, UniProt Q06124); assay: Inhibition of human recombinant tyrosine phosphatase SHP2 (DiFMUP fluorescence); assay type: biochemical; details: for Inhibition of SHP2, percentage of inhibition of the control: 1 µM, control solvent only, SD did not exceed 6%
T4 construct: purchased Sigma-Aldrich
T4 sequence (Q06124 1-593): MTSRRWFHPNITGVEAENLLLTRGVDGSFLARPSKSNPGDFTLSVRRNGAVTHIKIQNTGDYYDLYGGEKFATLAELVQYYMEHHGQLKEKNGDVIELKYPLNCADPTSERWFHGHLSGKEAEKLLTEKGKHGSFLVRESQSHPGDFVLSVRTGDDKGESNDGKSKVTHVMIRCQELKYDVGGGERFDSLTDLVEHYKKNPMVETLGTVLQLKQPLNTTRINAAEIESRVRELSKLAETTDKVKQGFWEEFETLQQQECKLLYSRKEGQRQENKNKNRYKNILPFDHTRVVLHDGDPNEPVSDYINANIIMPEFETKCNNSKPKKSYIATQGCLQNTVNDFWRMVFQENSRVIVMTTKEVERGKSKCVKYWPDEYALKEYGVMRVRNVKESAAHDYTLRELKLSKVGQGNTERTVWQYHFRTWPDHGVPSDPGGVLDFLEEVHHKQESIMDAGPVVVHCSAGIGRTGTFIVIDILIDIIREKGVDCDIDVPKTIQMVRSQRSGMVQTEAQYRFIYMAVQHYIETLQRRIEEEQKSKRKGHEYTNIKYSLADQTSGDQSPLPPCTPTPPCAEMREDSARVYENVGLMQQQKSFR
Summary of the method: as §1

hepatocytes HepG2 [4] = details: 50 µM
Procedure: Experiments on the inhibition of hepatic gluconeogenesis in HepG2 hepatocytes by the vanadium complexes were carried out based on a previous description with some modifications [143]. Hepatocytes HepG2 in culture medium (as indicated above) were seeded on a half-area 96 microplate at the amount of 50,000 per well. After 16–24 h, cells were washed with PBS three times and one time with experimental medium (DMEM without glucose with 0.1% BSA, 2 µM L-glutamine, 15 mM HEPES, 1 mM sodium pyruvate, 10 mM calcium lactate, 100 IU/mL penicillin, and 100 mg/mL streptomycin). Cells were incubated in this medium for 3 h at 37 °C in 5% CO2, and the next medium was changed to the experimental medium with additional gluconeogenesis inductors: 10 µM dexamethasone, 100 µM 8-bromoadenosine 3′,5′-cyclic monophosphate sodium salt (8-Br-cAMP), and 500 µM 3-isobutyl-1-methylxanthine (IBMX). After adding the test compounds, the cells were incubated for 3 h at 37 °C in a 5% CO2 microplate, and then the supernatant was collected for glucose assay (as described in Section 4.2.6). Glucose synthesis was calculated as glucose concentration differences between experimental medium without cells and medium with cells after incubation with the tested compound. The final results were expressed as the percent of inhibition of glucose synthesis by cells incubated with solvent only.

PP2A = PP2A (Homo sapiens, UniProt P67775); assay: Inhibition of human recombinant non-tyrosine phosphatase PP2A (DiFMUP); assay type: biochemical
Procedure: as §2

PTP1B = target: T5, PTP1B (Homo sapiens, UniProt P18031); assay: Inhibition of human recombinant tyrosine phosphatase PTP1B (DiFMUP fluorescence); assay type: biochemical; details: for Inhibition of PTP1B, percentage of inhibition of the control: 1 µM, control solvent only, SD did not exceed 6%
T5 construct: purchased Sigma-Aldrich
T5 sequence (P18031 1-435): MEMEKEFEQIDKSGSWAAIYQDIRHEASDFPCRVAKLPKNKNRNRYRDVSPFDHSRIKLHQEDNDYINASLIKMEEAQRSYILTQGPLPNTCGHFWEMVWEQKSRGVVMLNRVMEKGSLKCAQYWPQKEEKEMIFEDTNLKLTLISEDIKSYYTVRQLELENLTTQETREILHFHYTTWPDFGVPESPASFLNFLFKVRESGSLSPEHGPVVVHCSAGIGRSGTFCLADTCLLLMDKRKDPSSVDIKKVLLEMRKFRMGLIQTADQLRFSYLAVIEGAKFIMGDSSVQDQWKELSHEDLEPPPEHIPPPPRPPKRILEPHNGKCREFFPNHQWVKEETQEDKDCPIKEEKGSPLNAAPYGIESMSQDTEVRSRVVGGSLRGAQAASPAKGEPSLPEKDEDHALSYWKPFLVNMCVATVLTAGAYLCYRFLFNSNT
Summary of the method: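 Human recombinant PTP1B (final 50 ng/mL) in buffer of 25 mM MOPS, 50 mM NaCl, 1 mM DTT and 0.05% Tween-20 (pH 7.0) was dispensed onto test compound in black 384-well plates. After 10 min, DiFMUP was added to 0.1 mM. Plates were incubated 20 min at 23 °C and fluorescence read (ex 355, em 560 nm). Assays were run in triplicate, with inhibition relative to enzyme-plus-vehicle control and IC50 fitted in GraphPad Prism.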

[5] = Viability of myocytes C2C12 after 24 h incubation (resazurin-based reagent); details: mouse, C2C12 myocytes
Procedure: Simultaneously with glucose consumption tests, the viability of myocytes C2C12 was examined due to their prolonged 24 h incubation with vanadium complexes.
Prolonged incubation of the cells with vanadium complexes, as was the case during the study of the effect on glucose consumption, more closely corresponds to the actual conditions of clinical use, also allowing for the identification of possible cytotoxic effects. […] A Resazurin-based reagent is reduced proportionally to the metabolic activity of cells as a result of the transference of electrons from NADPH+H^+, the amount of which strictly depends on glucose metabolism.

adipocytes 3T3-L1 = tested on: adipocytes 3T3-L1; design: method as in doi:10.1016/j.poly.2020.114589; details: 50 µM; previously published by the authors; cited from earlier work

T3 sequence (P29350 whole entry): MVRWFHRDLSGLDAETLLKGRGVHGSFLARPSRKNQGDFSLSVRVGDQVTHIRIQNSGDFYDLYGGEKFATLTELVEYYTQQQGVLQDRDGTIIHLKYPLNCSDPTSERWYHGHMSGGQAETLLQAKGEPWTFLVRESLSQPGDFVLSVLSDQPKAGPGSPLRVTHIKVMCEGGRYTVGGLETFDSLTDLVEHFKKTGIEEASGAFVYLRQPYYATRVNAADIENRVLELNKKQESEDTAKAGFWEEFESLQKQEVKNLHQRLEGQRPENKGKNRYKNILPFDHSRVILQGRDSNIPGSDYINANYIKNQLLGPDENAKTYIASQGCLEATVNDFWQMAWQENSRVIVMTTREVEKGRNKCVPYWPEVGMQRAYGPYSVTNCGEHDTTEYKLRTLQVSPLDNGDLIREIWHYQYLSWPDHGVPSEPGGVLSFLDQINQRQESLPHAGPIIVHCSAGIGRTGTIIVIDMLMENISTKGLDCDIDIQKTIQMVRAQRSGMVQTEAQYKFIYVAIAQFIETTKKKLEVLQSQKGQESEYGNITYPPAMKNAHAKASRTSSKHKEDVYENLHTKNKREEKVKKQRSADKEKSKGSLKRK
PP2A, sequence (P67775 whole entry): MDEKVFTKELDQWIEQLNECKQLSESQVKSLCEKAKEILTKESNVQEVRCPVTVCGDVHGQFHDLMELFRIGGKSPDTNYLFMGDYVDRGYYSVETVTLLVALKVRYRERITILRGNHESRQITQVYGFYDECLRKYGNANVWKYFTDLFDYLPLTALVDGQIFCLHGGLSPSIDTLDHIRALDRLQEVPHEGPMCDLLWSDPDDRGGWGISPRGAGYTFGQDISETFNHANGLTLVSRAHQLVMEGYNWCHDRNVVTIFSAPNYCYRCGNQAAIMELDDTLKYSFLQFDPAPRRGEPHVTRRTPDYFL

CN(C)C(=N)N=C(N)N [metformin]
Inhibition of glucose synthesis by hepatocytes, experimental control compounds (hepatocytes HepG2 [1]): showed inhibition of glucose synthesis | Potentiation of [14C]-deoxy-D-glucose transport to hyperinsulinemia-induced insulin-resistant hepatocytes (hepatocytes HepG2 [2]): did not potentiate

O=C(NN=Cc1cc(Br)ccc1[O-])c1ccc([N+](=O)[O-])cc1.O=[N+]([O-])c1ccc(C([O-])=NN=Cc2cc(Br)ccc2[O-])cc1.[V+3] [VC068, [V(L13)(HL13)]]
Transport of [14C]-deoxy-D-glucose into C2C12 myocytes, % of the control (myocytes C2C12): 218 ± 10 % of control | IC50 (LAR): 619 nM | Inhibition of LAR, percentage of inhibition of the control (LAR): 33% | Inhibition of CDC25A, percentage inhibition of control ± SD (CDC25A; 1 µM): 54 ± 3% | Inhibition of CDC25A, percentage inhibition of control ± SD (CDC25A; 10 µM): 62 ± 2% | Reversal of decreased [14C]-deoxy-D-glucose transport, insulin resistance induced by TNF (hepatocytes HepG2 [3]): reversed the decrease | IC50 (SHP1): 517 nM | Inhibition of SHP1, percentage of inhibition of the control (SHP1): 70% | Log IC50 ± SD SHP1 (SHP1; logarithm of IC50): −6.29 ± 0.02 | IC50 (SHP2): 235 nM | Inhibition of SHP2, percentage of inhibition of the control (SHP2): 74% | Inhibition of glucose synthesis (gluconeogenesis) in hepatocytes (hepatocytes HepG2 [4]): 79 ± 18% | Inhibition of PP2A, percentage inhibition of control ± SD (PP2A; 1 µM): 26 ± 12% | Inhibition of PP2A, percentage inhibition of control ± SD (PP2A; 10 µM): 55 ± 15% | Inhibition of PTP1B, percentage of inhibition of the control (PTP1B): 40% | Log IC50 ± SD PTP1B (PTP1B; logarithm of IC50): −5.69 ± 0.02 | IC50 (PTP1B; read-out: IC50 PTP1B): 2030 nM

CN(CCOc1ccc(CC2SC(=O)NC2=O)cc1)c1ccccn1 (stereo not shown) [rosiglitazone, reference compound]
viability at 24 h, 50 µM [5]: 120 ± 7%

O=C(NN=Cc1cc(Br)ccc1[O][V]1[O]C(c2ccccc2O)=NN=Cc2cc(Br)ccc2[O]1)c1ccccc1O [VC029, [V(L7)(HL7)]]
Inhibition of LAR, percentage of inhibition of the control (LAR): 25% | Inhibition of SHP1, percentage of inhibition of the control (SHP1): 62% | Inhibition of SHP2, percentage of inhibition of the control (SHP2): 68% | Transport of [14C]-deoxy-D-glucose into 3T3-L1 adipocytes, % of control (adipocytes 3T3-L1): statistically significant activity | Inhibition of PTP1B, percentage of inhibition of the control (PTP1B): 31%

Reference: PMC10892041, “Vanadium Complexes with Thioanilide Derivatives of Amino Acids: Inhibition of Human Phosphatases and Specificity in Various Cell Models of Metabolic Disturbances” (Pharmaceuticals, 2024)
